According to patent US20070232615A1, “Chemical Compounds” (priority 2004, published 2007):

Legend:
T-tropic HIV = conditions: patients dual tropic or with only the T-tropic form of the virus; cited from earlier work
HIV = assay: HOS HIV infectivity assay (Table 2, strain not given); assay type: cell-based; conditions: Human immunodeficiency virus 1, read-out: Activity Level
Method in brief: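 HOS cells expressing hCXCR4/hCCR5/hCD4 and an HIV-LTR-luciferase reporter were preincubated with compound for 1 h in DMEM/2% FCS. They were then infected with HIV-1 Ba-L or IIIB (about 2 million RLU/well) for 96 h at 37° C. Infection was read by luciferase luminescence, and viability in uninfected cultures by CellTiter-Glo.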

HIV-1 IIIB = assay: HOS HIV-1 infectivity assay, IIIB strain; assay type: cell-based; conditions: Human immunodeficiency virus 1; HOS cells, HIV-1 IIIB (T-tropic, CXCR4 utilizing), 96 h; read-out: HOS (3B)
Procedure: HOS HIV-1 Infectivity Assay
(§1) Compounds were profiled against two HIV-1 viruses, the M-tropic (CCR5 utilizing) Ba-L strain and the T-tropic (CXCR4 utilizing) IIIB strain. Both viruses were propagated in human peripheral blood lymphocytes. Compounds were tested for there ability to block infection of the HOS cell line (expressing hCXCR4/hCCR5/hCD4/pHIV-LTR-luciferase) by either HIV-1 Ba-L or HIV-1 IIIB. Compound cytotoxicity was also examined in the absence of virus addition.
HOS HIV-1 Infectivity Assay Format
(§2) HOS cells (expressing hCXCR4/hCCR5/hCD4/pHIV-LTR-luciferase) were harvested and diluted in Dulbeccos modified Eagles media supplemented with 2% FCS and non-essential amino acid to a concentration of 60,000 cells/ml. The cells were plated into 96-well plates (100 ul per well) and the plates were placed in a tissue culture incubator (37° C.; 5% CO2/95% air) for a period of 24 h.
(§3) Subsequently, 50 ul of the desired drug solution (4 times the final concentration) was added to each well and the plates were returned to the tissue culture incubator (37° C.; 5% CO2/95% air) for 1 h. Following this incubation 50 ul of diluted virus was added to each well (approximately 2 million RLU per well of virus). The plates were returned to the tissue culture incubator (37° C.; 5% CO2/95% air) and were incubated for a further 96 h.
(§4) Following this incubation the endpoint for the virally infected cultures was quantified following addition of Steady-Glo Luciferase assay system reagent (Promega, Madison, Wis.). Cell viability or non-infected cultures was measured using a CellTiter-Glo luminescent cell viability assay system (Promega, Madison, Wis.). All luminescent readouts are performed on a Topcount luminescence detector (Packard, Meridien, Conn.).

human CXCR4 = molecular target: T1, human CXCR4 (Homo sapiens, UniProt P61073); assay: Functional FLIPR assay (block of SDF-1 alpha induced [Ca2+]i change); assay type: cell-based; conditions: HEK-293 cells with human CXCR4 and Gqi5 BacMam; antagonism of SDF-1 alpha; read-out: Functional assay (pIC50) (converted)
T1 construct: expressed in transfected cells; host or cells: HEK-293 cells (stably expressing human macrophage scavenger receptor class A type 1), transduced with human CXCR4 BacMam and Gqi5 BacMam baculoviruses
T1 sequence (P61073 whole entry): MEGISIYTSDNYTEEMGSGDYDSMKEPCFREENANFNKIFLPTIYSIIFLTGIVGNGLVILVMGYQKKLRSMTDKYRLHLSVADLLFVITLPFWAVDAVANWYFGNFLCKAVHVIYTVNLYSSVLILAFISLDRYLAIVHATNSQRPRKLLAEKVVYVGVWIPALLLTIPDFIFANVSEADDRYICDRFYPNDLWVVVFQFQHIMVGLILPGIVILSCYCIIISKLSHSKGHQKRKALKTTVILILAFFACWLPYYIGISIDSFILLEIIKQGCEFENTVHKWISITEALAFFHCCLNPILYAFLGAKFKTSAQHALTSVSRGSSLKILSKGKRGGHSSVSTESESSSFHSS
Procedure: Human embryonic kidney (HEK-293) cells were maintained and harvested as described above. Cells were plated in 96-well, black clear bottom, poly-lysine coated plates at a concentration of 40,000 cells per well in a final volume of 100 ul containing human CXCR4 BacMam (MOI=25) and Gqi5 BacMam (MOI=12.5). The cells were incubated at 37° C., 5% CO2, 95% humidity for 24 h to allow for protein expression.
After the required incubation time the cells were washed once with 50 ul of fresh serum-free DMEM/F12 media containing probenicid. 50 ul of dye solution was then added to the cells (Calcium Plus Assay Kit Dye; Molecular Devices) was dissolved in 200 ml of the above probenicid/BSA containing media and incubated for 1 h. Cell plates were transferred to a Fluorometric Imaging Plate Reader (FLIPR). Upon addition the effect of the compounds on the change in [Ca^2+]i was examined to determine if the compounds were agonists or antagonists (ability to block SDF-1 alpha activity) at the CXCR4 receptor. IC50 values are determined and pKb values are calculated using the Leff and Dougall equation: KB=IC50/((2+([agonist]/EC50ˆb)ˆ1/b−1) Where IC50 is that defined by the antagonist concentration-response curve [agonist] is the EC80 concentration of agonist used EC50 is that defined by the agonist concentration-response curve b is the slope of the agonist concentration-response curve.

[1] = Compound cytotoxicity in the absence of virus (CellTiter-Glo); assay type: cell-based; conditions: human; HOS cells, no virus; read-out: Cytotox (pIC50) (converted)
Procedure: as §1, §2, §3, §4

[2] = tested on: HOS (hCXCR4/hCCR5/hCD4/pHIV-LTR-luciferase) cells and HEK-293 cells expressing HIV-1 gp160 (HXB2 strain); assay: Cell/cell fusion assay (luciferase); assay type: cell-based; conditions: Homo sapiens, HEK293; 24 h, luciferase readout; read-out: Fusion assay (pIC50) (converted)
Source text: The complete coding sequences of HIV-1 tat (GenBank Accession No. X07861) and rev (GenBank Accession No. M34378) were cloned into pcDNA3.1 expression vectors containing G418 and hygromycin resistance genes, respectively. The complete coding sequence of the HIV-1 (HXB2 strain) gp160 envelope gene (nucleotide bases 6225-8795 of GenBank Accession No. K03455) was cloned into plasmid pCRII-TOPO. The three HIV genes were additionally inserted into the baculovirus shuttle vector, pFastBacMam1, under the transcriptional control of the CMV promoter. A construction of the pHIV-I LTR containing mutated NFkB sequences linked to the luciferase reporter gene was prepared by digesting pcDNA3.1, containing the G418 resistance gene, with Nru I and Bam HI to remove the CMV promoter. LTR-luc was then cloned into the Nru I/Bam HI sites of the plasmid vector. Plasmid preparations were performed after the plasmids were amplified in Escherichia coli strain DH5-alpha. The fidelity of the inserted sequences was confirmed by double-strand nucleotide sequencing using an ABI Prism Model 377 automated sequencer.
BacMam Baculovirus Generation
Recombinant BacMam baculoviruses were constructed from pFastBacMam shuttle plasmids by using the bacterial cell-based Bac-to-Bac system. Viruses were propagated in Sf9 (Spodoptera frugiperda) cells cultured in Hink's TNM-FH Insect media supplemented with 10% (v/v) fetal bovine serum and 0.1% (v/v) pluronic F-68 according to established protocols.
Human osteosarcoma (HOS) cells that naturally express human CXCR4 were transfected with human CCR5, human CD4 and the pHIV-LTR-luciferase plasmid using FuGENE 6 transfection reagent. Single cells were isolated and grown under selection condition in order to generate a stable HOS (hCXCR4/hCCR5/hCD4/pHIV-LTR-luciferase) clonal cell line. The cells were maintained in Dulbeccos modified Eagles media supplemented with 10% fetal calf serum (FCS), G418 (400 ug/ml), puromycin (1 ug/ml), mycophenolic acid (40 ug/ml), xanthine (250 ug/ml) and hypoxanthine (13.5 ug/ml) to maintain a selection pressure for cells expressing the LTR-luciferase, hCCR5 and hCD4, respectively. Human embryonic kidney (HEK-293) cells stably transfected to express the human macrophage scavenging receptor (Class A, type 1; GenBank Accession No. D90187), were maintained in DMEM/F-12 media (1:1) supplemented with 10% FCS and 1.5 ug/ml puromycin. The expression of this receptor by the HEK-293 cells enhances their ability to stick to tissue culture treated plasticware.
Transduction of HEK-293 cells
HEK-293 cells were harvested using enzyme-free cell dissociation buffer. The cells were resuspended in DMEM/F-12 media supplemented with 10% FCS and 1.5 ug/ml and counted. Tranductions were performed by direct addition of BacMam baculovirus containing insect cell media to cells. The cells were simultaneously transduced with BacMam baculovirus expressing HIV-1 tat, HIV-1 rev and HIV-1 gp160 (from the HXB2 HIV strain). Routinely an MOI of 10 of each virus was added to the media containing the cells. 2 mM butyric acid was also added to the cells at this stage to increase protein expression in transduced cells. The cells were subsequently mixed and seeded into a flask at 30 million cells per T225. The cells were incubated at 37° C., 5% CO2, 95% humidity for 24 h to allow for protein expression.
Cell/Cell Fusion Assay Format
HEK and HOS cells were harvested in DMEM/F-12 media containing 2% FCS and DMEM media containing 2% FCS, respectively, with no selection agents added. Compounds were plated as 1 ul spots in 100% DMSO on a 96-well CulturPlate plates. HOS cells (50 ul) were added first to the wells, followed immediately by the HEK cells (50 ul). The final concentration of each cell type was 20,000 cells per well. Following these additions, the cells were returned to a tissue culture incubator (37° C.; 5% CO2/95% air) for an additional 24 h.
Measurement of Luciferase Production […]

Compound | T-tropic HIV viral load (T-tropic HIV) | IC50 (HIV) | IC50 (HIV-1 IIIB) | IC50 (human CXCR4) | IC50 at 96 h [1] | IC50 [2]
c1cc(CN2CCCNCCNCCCNCC2)ccc1CN1CCCNCCNCCCNCC1 [AMD-3100] | significantly reduce T-tropic HIV viral load |  |  |  |  | 
CN(C)Cc1ccc(-c2cccc3nc(CN(C)C4CCCc5cccnc54)cn23)cc1 (stereo not shown) [Example 18, N-[(5-{4-[(Dimethylamino)methyl]phenyl}imidazo[1,2-a]pyridin-2-yl)methyl]-N-methyl-5,6,7,8-tetrahydro-8-quinolinamine] |  | < 100 nM | 65 nM | 38.9 nM | > 100000 nM | 148 nM
CN(Cc1cn2c(N3CCNCC3)cccc2n1)C1CCCc2cccnc21 (stereo not shown) [Example 10, N-Methyl-N-{[5-(1-piperazinyl)imidazo[1,2-a]pyridin-2-yl]methyl}-5,6,7,8-tetrahydro-8-quinolinamine] |  | < 100 nM | 20 nM | 6.92 nM | > 100000 nM | 17.8 nM
CC(C)N1CCN(c2cccc3nc(CN(C(C)C)C4CCCc5cccnc54)cn23)CC1 (stereo not shown) [Example 15, N-(1-Methylethyl)-N-({5-[4-(1-methylethyl)-1-piperazinyl]imidazo[1,2-a]pyridin-2-yl}methyl)-5,6,7,8-tetrahydro-8-quinolinamine] |  | < 100 nM | 38 nM | 3.63 nM | > 100000 nM | 79.4 nM
